One assay concerns U251. Description: NCI 60 single concentration growth inhibition. Type of assay: cell-based, human. The conditions noted are these: Homo sapiens, U-251, U251, CNS cancer, read-out: GI%. An outline of the steps: (§1)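 Growth measured by sulforhodamine B protein staining (515 nm) after 48 h drug exposure at 37 °C, following 24 h plating in RPMI 1640 with 5% FBS and 2 mM L-glutamine. Compounds first tested at one 10 µM dose, then five-dose series (10-fold or ½ log steps); percent growth relative to time-zero and untreated wells.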

The test system of another assay is K-562. Description: NCI 60 single concentration growth inhibition. To be noted: Homo sapiens, K562, K-562, Leukemia, read-out: GI%. In kind it is cell-based, human. An outline of the steps: as §1
A further assay relates to OVCAR-4. Description: NCI 60 single concentration growth inhibition. Type of assay: cell-based, human. To be noted: Homo sapiens, OVCAR-4, Ovarian cancer, read-out: GI%. The essentials: as §1
In another assay the test system is NCI-H460. As to the kind of experiment: NCI 60 single concentration growth inhibition. In kind it is cell-based, human. The conditions noted are these: Homo sapiens, NCI-H460, Non-small cell lung cancer, read-out: GI%. The essentials: as §1
The next assay relates to TK-10. Description: NCI 60 single concentration growth inhibition. Type of assay: cell-based, human. To be noted: Homo sapiens, TK-10, Renal cancer, read-out: GI%. The essentials: as §1
The subject of a further assay is HOP-92. As to the kind of experiment: NCI 60 single concentration growth inhibition. In kind it is cell-based, human. The conditions noted are these: Homo sapiens, HOP-92, Non-small cell lung cancer, read-out: GI%. The essentials:
as §1

Another assay has as its system SNB-19. As to the kind of experiment: NCI 60 single concentration growth inhibition. Type of assay: cell-based, human. The conditions noted are these: Homo sapiens, SNB-19, CNS cancer, read-out: GI%. The essentials:
as §1

In assay [1] the test system is COLO 205. Description: NCI 60 single concentration growth inhibition. Type of assay: cell-based, human. The conditions noted are these: Homo sapiens, COLO 205, Colon cancer, read-out: GI%. An outline of the steps:
as §1

The next assay relates to SR. As to the kind of experiment: NCI 5-dose assay. To be noted: Homo sapiens, Leukemia. In kind it is cell-based. Here is the method: (§2) The synthesized dichlorobenzimidazoles 10a–p were assayed for their influence on divers cancer cell lines according to the method presented in the Additional file A.
(§3) 5. Screening of cytotoxic activity against a panel of sixty human tumor cell lines
(§4) The selected compounds by NCI were evaluated for their anticancer activity in a two-stage process. First, these compounds were screened against the full NCI 60 cell lines panel at a single high dose of 10 µM. Then, the output from the single dose screen is reported as a mean graph. […]
(§5) at five different minimal concentrations.
(§6) Assay protocol. The human tumor cell lines of the cancer screening panel are grown in RPMI 1640 medium containing 5% fetal bovine serum and 2 mM L-glutamine. For a typical screening experiment, cells are inoculated into 96 well microtiter plates in 100 µL at plating densities ranging from 5000 to 40,000 cells/well depending on the doubling time of individual cell lines. After cell inoculation, the microtiter plates are incubated at 37 °C, 5% CO 2, 95% air and 100% relative humidity for 24 h prior to addition of the experimental drugs.
(§7) After 24 h, two plates of each cell line are fixed in situ with TCA, to represent a measurement of the cell population for each cell line at the time of drug addition (Tz). The experimental drugs are solubilized in dimethyl sulfoxide at 400-fold the desired final maximum test concentration and stored frozen prior to use. At the time of drug addition, an aliquot of frozen concentrate is thawed and diluted to twice the desired final maximum test concentration with complete medium containing 50 µg/mL gentamicin. Additional four, 10-fold or ½ log serial dilutions are made to provide a total of five drug concentrations plus control.
(§8) Aliquots of […] of these different drug dilutions are added to the appropriate microtiter wells already containing […] of medium, resulting in the required final drug concentrations.
(§9) Following drug addition, the plates are incubated for an additional 48 h at 37 °C, 5% CO 2, 95% air, and 100% relative humidity. For adherent cells, the assay is terminated by the addition of cold TCA.
(§10) Cells are fixed in situ by the gentle addition of 50 µL of cold 50% (w/v) TCA (final concentration, 10% TCA) and incubated for 60 min at 4 °C. The supernatant is discarded, and the plates are washed five times with tap water and air dried. Sulforhodamine B (SRB) solution ([…]) at 0.4% (w/v) in 1% acetic acid is added to each well, and plates are incubated for 10 min at room temperature. After staining, unbound dye is removed by washing five times with 1% acetic acid and the plates are air dried. Bound stain is subsequently solubilized with 10 mM trizma base, and the absorbance is read on an automated plate reader at a wavelength of 515 nm. For suspension cells, the methodology is […]
(§11) the same except that the assay is terminated by fixing settled cells at the bottom of the wells by gently adding 50 µl of 80% TCA (final concentration, 16% TCA). Using the seven absorbance measurements [time zero, (Tz), control growth, (C), and test growth in the presence of drug at the five concentration levels (Ti)], the percentage growth is calculated at each of the drug concentrations […]
(§12) Percentage growth inhibition is calculated as: [(Ti Tz)/(C–Tz)] x 100 for concentrations for which Ti>/=Tz and [(Ti-Tz)/Tz] x 100 for concentrations for which Ti < Tz.
(§13) Three dose response parameters are calculated for each experimental agent. Growth […]
(§14) concentration resulting in a 50% reduction in the net protein increase (as measured by SRB staining) in control cells during the drug incubation. The drug concentration resulting in total growth inhibition (TGI) is calculated from Ti = Tz. […]
(§15) reduction in the measured protein at the end of the drug treatment as compared to that at the beginning) indicating a net loss of cells following treatment is calculated from [(Ti–Tz)/Tz] x 100 =
(§16) _50. Values are calculated for each of these three parameters if the level of activity is reached; […]

A further assay has as its system UACC-62. Description: NCI 5-dose assay. Type of assay: cell-based. The conditions noted are these: Homo sapiens; UACC-62, Melanoma. Here is the method: as §2, §3, §4, §5, §6, §7, §8, §9, §10, §11, §12, §13, §14, §15, §16
Another assay relates to HS 578T. Description: NCI 5-dose assay. Type of assay: cell-based. The conditions noted are these: Homo sapiens, Breast cancer. Here is the method: as §2, §3, §4, §5, §6, §7, §8, §9, §10, §11, §12, §13, §14, §15, §16
The test system of a further assay is OVCAR-3. As to the kind of experiment: NCI 5-dose assay. In kind it is cell-based. To be noted: Homo sapiens; OVCAR-3, Ovarian cancer. Here is the method: as §2, §3, §4, §5, §6, §7, §8, §9, §10, §11, §12, §13, §14, §15, §16
A further assay concerns HT29. As to the kind of experiment: NCI 5-dose assay. To be noted: Homo sapiens, HT-29; HT29, Colon cancer. In kind it is cell-based. Here is the method: as §2, §3, §4, §5, §6, §7, §8, §9, §10, §11, §12, §13, §14, §15, §16
In assay [2] the test system is COLO 205. As to the kind of experiment: NCI 5-dose assay. In kind it is cell-based. The conditions noted are these: Homo sapiens; COLO 205, Colon cancer. Here is the method:
as §2, §3, §4, §5, §6, §7, §8, §9, §10, §11, §12, §13, §14, §15, §16

Another assay has as its system UO-31. Description: NCI 60 single concentration growth inhibition. Type of assay: cell-based, human. The conditions noted are these: UO-31, Renal cancer, 10 μM. The essentials: as §1
Another assay deals with MALME-3M. As to the kind of experiment: NCI 60 single concentration growth inhibition. In kind it is cell-based, human. The conditions noted are these: Melanoma, 10 μM. The essentials: as §1
In the next assay the test system is NCI-H322M. Description: NCI 60 single concentration growth inhibition. In kind it is cell-based, human. The conditions noted are these: Non-small cell lung cancer, 10 μM. An outline of the steps: as §1
Another assay deals with SNB-75. Description: NCI 60 single concentration growth inhibition. Type of assay: cell-based, human. To be noted: SNB-75, CNS cancer, 10 μM. The essentials: as §1
The next assay concerns IGROV1. As to the kind of experiment: NCI 60 single concentration growth inhibition. In kind it is cell-based, human. The conditions noted are these: IGROV1, Ovarian cancer, 10 μM. The essentials: as §1

`COC(=O)COc1ccc(C=NNC(=O)Cn2c(-c3ccc(OC)cc3)nc3cc(Cl)c(Cl)cc32)cc1` [Compound 10h, Methyl-2-(4-((2-(2-(5,6-dichloro-2-(4-methoxyphenyl)-1H-benzo[d]imidazol-1-yl)acetyl)hydrazono)methyl)phenoxy)acetate]: the inhibition at 10 µM with U251 is 10.1%; in the assay on K-562, 31.4%; with OVCAR-4 it was less than 5%; with NCI-H460, less than 5%; in the assay on TK-10, less than 5%; with HOP-92, 7.02%. In addition, the inhibition at 10 µM is 8.19% in the assay on SNB-19 and 51.5% with COLO 205 [1]. Also, the 50% growth inhibitory concentration (GI50) (commonly the concentration that inhibits growth by half) in the assay on SR was 2.8 µM; in the assay on UACC-62, 10.1 µM; in the assay on HS 578T it was 10.1 µM; with OVCAR-3, 10.6 µM; with HT29, 1.79 µM; in the assay with COLO 205 [2], 16.5 µM.

As to `COC(=O)COc1ccc(C=NNC(=O)Cn2c(-c3ccc(OC)cc3)nc3cc(Cl)c(Cl)cc32)cc1OC` [Compound 10p, Methyl-2-(4-((2-(2-(5,6-dichloro-2-(4-methoxyphenyl)-1H-benzo[d]imidazol-1-yl)acetyl)hydrazono)methyl)-2-methoxyphenoxy)acetate], the inhibition at 10 µM in the assay with U251 is less than 5%; in the assay on K-562, 12.3%; with OVCAR-4, less than 5%; in the assay on NCI-H460 it was less than 5%; in the assay on TK-10, 58%; in the assay with HOP-92, less than 5%. For the same compound, the inhibition at 10 µM in the assay with SNB-19 was less than 5%; in the assay on COLO 205 [1], 34.9%. Further, the GI50 is 2.15 µM in the assay with SR; 6.52 µM in the assay on UACC-62; 4.34 µM in the assay with HS 578T; more than 72.5 µM in the assay with OVCAR-3; 1.46 µM in the assay with HT29; 18.2 µM in the assay with COLO 205 [2].

Turning to `COC(=O)COc1cc(C=NNC(=O)Cn2c(-c3ccc(OC)cc3)nc3cc(Cl)c(Cl)cc32)ccc1OC` [Compound 10o, Methyl-2-(5-((2-(2-(5,6-dichloro-2-(4-methoxyphenyl)-1H-benzo[d]imidazol-1-yl)acetyl)hydrazono)methyl)-2-methoxyphenoxy)acetate], the GI% in the assay on UO-31 was 18.26%; in the assay with MALME-3M, “– (GI% < 5%)”; in the assay with NCI-H322M, 11.69%; with SNB-75, 27.54%; in the assay on IGROV1, 97.59%. Besides, the inhibition at 10 µM is 6.53% with U251; 23.6% in the assay with K-562; 18% in the assay on OVCAR-4; less than 5% with NCI-H460; less than 5% with TK-10; 29.1% in the assay on HOP-92. In addition, the inhibition at 10 µM in the assay on SNB-19 and with COLO 205 [1] was less than 5% each time. For the same compound, the GI50 is 3 µM in the assay on SR; 14.5 µM in the assay on UACC-62; 2.68 µM in the assay on HS 578T; more than 100 µM in the assay on OVCAR-3; 12.9 µM with HT29; more than 100 µM in the assay on COLO 205 [2].

For the compound `COc1ccc(-c2nc3cc(Cl)c(Cl)cc3n2CC(=O)NN=Cc2ccc(OC)c(O)c2)cc1` [Compound 10k, 2-(5,6-Dichloro-2-(4-methoxyphenyl)-1H-benzo[d]imidazol-1-yl)-N'-(3-hydroxy-4-methoxybenzylidene)acetohydrazide], the GI% in the assay with UO-31 stood at 55.02%; in the assay on MALME-3M, 23.45%; with NCI-H322M it was 8.94%; with SNB-75, 33.65%; in the assay on IGROV1, 10.22%. In addition, the inhibition at 10 µM in the assay with U251 came out at 38%; with K-562, 59.9%; with OVCAR-4, 47.3%; with NCI-H460, 24.8%; in the assay on TK-10, 28%; in the assay with HOP-92 it was 12%. For the same compound, the inhibition at 10 µM with SNB-19 came to 40.3%; in the assay with COLO 205 [1], 22.1%.

Source of the values: publication PMC11844072, “Novel 5,6-dichlorobenzimidazole derivatives as dual BRAFWT and BRAFV600E inhibitors: design, synthesis, anti-cancer activity and molecular dynamics simulations” (BMC Chemistry, 2025).
